The numbers were not newly measured in US20110082407A1, “Combination Therapies for the Treatment of Obesity” (priority 2009, published 2011), which cites them from elsewhere.

For data set [1] the following is noted: literature studies.
For data set [2] the following is noted: in vivo.

Take triacetyl-beta-cyclodextrin: the “solubility in water” value was “insoluble”.

Consider `CC(C)CC(N(C)C)C1(c2ccc(Cl)cc2)CCC1` (centres unmarked) [sibutramine], for which, in data set [1], the “weight loss of body weight for drug compared with placebo” value (“weight loss … compared with placebo” for short) is listed as “about 5%”. The “clinically significant side effect limiting clinical use” value in data set [2] is “can cause hypertension”. On to `CCNC(C)Cc1cccc(C(F)(F)F)c1` (centres unmarked) [fenfluramine], for which the “clinically significant side effect limiting clinical use” value in data set [2] is “caused heart-valve complications”. In the case of `CCN[C@@H](C)Cc1cccc(C(F)(F)F)c1` [dexfenfluramine], in data set [1], the “weight loss … compared with placebo” value is given as “about 5%”. For the same compound, the “clinically significant side effect limiting clinical use” value in data set [2] is listed as “suspected heart valvulopathy”. On to `CCCCCCCCCCC[C@@H](C[C@@H]1OC(=O)[C@H]1CCCCCC)OC(=O)[C@H](CC(C)C)NC=O` [orlistat], for which the “weight loss … compared with placebo” value in data set [1] is on record as “about 5%”. In data set [2], the “clinically significant side effect limiting clinical use” value is “GI side effects”.
